Some results are limits rather than exact numbers.

What all share (assay type): cell-based
One assay has as its target D(2) dopamine receptor (Homo sapiens, UniProt P14416). Briefly: Displacement of [3H]-(R)-(+)-7-OH-DPAT from human D2L receptor expressed in HEK293 cells after 90 mins by microbeta counting based assay. For orientation: In a radioligand displacement assay an active substance lowers the binding of a labelled ligand.
Another assay has as its target D(3) dopamine receptor (Homo sapiens, UniProt P35462). Briefly: Displacement of [3H]-(R)-(+)-7-OH-DPAT from human D3 receptor expressed in HEK293 cells after 90 mins by microbeta counting based assay.
Assay [1] has as its target T1, D(1A) dopamine receptor (Homo sapiens, UniProt P21728). Briefly: Displacement of [3H]-SCH23390 from human D1 receptor expressed in HEK293 cells after 60 mins by microbeta counting based assay.
Assay [2] has as its target T1, D(1A) dopamine receptor. Briefly: Displacement of [3H]-SCH23390 from human D1 receptor expressed in HEK293 cells at 100 uM after 60 mins by microbeta counting based assay relative to control.
In assay [3] the target is T2, Mu-type opioid receptor (Homo sapiens, UniProt P35372). Briefly: Displacement of [3H]-DAMGO from human MOR expressed in HEK293 cells after 60 mins by microbeta counting based assay.
T2 sequence (P35372 whole entry): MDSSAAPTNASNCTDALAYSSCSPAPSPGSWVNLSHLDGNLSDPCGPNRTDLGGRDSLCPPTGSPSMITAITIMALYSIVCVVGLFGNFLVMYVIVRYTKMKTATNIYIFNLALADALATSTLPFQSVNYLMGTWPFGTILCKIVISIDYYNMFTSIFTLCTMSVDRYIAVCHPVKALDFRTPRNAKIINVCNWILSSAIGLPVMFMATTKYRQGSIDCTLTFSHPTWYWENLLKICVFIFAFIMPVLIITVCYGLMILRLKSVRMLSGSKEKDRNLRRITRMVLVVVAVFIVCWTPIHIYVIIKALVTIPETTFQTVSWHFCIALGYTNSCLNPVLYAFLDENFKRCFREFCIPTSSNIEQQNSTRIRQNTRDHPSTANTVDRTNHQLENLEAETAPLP
The target of assay [4] is T2, Mu-type opioid receptor. Briefly: Displacement of [3H]-DAMGO from human MOR expressed in HEK293 cells at 100 uM after 60 mins by microbeta counting based assay relative to control.

T1 sequence (P21728 whole entry): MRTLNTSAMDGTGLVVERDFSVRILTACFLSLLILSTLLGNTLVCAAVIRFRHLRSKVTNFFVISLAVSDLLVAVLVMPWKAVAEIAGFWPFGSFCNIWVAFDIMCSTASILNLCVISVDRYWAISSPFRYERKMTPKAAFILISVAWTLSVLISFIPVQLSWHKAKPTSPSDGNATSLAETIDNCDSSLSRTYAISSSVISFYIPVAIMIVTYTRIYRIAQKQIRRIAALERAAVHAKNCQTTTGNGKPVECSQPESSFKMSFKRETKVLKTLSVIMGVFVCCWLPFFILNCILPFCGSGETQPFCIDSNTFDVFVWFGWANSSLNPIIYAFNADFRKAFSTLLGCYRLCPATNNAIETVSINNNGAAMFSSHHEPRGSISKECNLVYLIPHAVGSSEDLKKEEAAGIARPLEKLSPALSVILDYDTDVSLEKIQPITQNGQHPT
D(2) dopamine receptor, sequence (P14416 whole entry): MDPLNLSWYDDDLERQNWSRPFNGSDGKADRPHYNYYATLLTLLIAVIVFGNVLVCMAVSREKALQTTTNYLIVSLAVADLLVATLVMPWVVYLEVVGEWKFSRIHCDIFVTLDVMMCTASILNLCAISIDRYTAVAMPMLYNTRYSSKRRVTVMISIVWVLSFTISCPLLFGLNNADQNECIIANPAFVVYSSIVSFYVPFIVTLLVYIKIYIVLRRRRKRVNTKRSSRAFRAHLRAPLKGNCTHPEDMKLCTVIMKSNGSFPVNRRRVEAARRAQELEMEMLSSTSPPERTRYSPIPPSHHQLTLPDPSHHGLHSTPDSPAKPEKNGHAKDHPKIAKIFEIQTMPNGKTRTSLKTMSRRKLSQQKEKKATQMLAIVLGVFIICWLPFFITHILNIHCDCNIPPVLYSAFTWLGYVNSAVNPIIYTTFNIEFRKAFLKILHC
D(3) dopamine receptor, sequence (P35462 whole entry): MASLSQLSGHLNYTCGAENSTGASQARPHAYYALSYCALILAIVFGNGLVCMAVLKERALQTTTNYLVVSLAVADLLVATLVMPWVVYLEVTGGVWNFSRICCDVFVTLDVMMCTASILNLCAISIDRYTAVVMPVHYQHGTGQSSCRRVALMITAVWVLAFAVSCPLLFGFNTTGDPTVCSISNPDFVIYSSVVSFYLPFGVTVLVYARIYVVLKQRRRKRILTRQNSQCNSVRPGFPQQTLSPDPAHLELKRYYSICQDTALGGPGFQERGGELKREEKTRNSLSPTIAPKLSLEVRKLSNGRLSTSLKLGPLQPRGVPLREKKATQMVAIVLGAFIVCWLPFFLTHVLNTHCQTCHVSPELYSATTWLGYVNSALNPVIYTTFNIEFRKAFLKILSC

With `O=C(NCCCCN1CCO[C@@H]2c3cc(O)ccc3OC[C@@H]21)c1cc2ccccc2[nH]1` (relative stereo), the Ki (as a rule, the dissociation constant of the complex between target and ligand, obtained from inhibition or displacement) was 9.42 µM at D(2) dopamine receptor, 13.8 µM at D(3) dopamine receptor, above 100 µM at D(1A) dopamine receptor [1] and 12.3 µM on Mu-type opioid receptor [3]. In addition, the inhibition (as a rule, the percentage by which the read-out fell short of the control) on D(1A) dopamine receptor [2] is below 50%.
The matching figures for `O=C(NCCCCN1CCO[C@H]2c3cc(O)ccc3OC[C@@H]21)c1cc2ccccc2[nH]1` (relative stereo): 5.88 µM, 5.54 µM, above 100 µM, 12.4 µM and below 50%.
`CCCN1CCO[C@H]2c3cc(O)ccc3OC[C@@H]21`: on D(1A) dopamine receptor [2], the inhibition was below 50%.
Take `C[C@H]1CO[C@@H](c2ccc(N)nc2)CN1CC(O)CCNC(=O)c1cc2ccccc2[nH]1` (stereo partly specified): the inhibition constant (Ki) at D(1A) dopamine receptor [1] is above 100 µM. This compound yielded an inhibition on D(1A) dopamine receptor [2] below 50%.
With `CCCN1CC(c2ccc(N)nc2)OC[C@@H]1C` (mixture of isomers), the inhibition on Mu-type opioid receptor [4] and at D(1A) dopamine receptor [2] was below 50% throughout. The Ki on D(1A) dopamine receptor [1] and on Mu-type opioid receptor [3] was above 100 µM each time.
With `CCCN1CCO[C@@H]2c3cc(O)ccc3OC[C@H]21`, the inhibition on D(1A) dopamine receptor [2] was below 50%.
`C[C@H]1CO[C@@H](c2ccc(N)nc2)CN1CC[C@H]1CC[C@H](NC(=O)c2cc3ccccc3[nH]2)CC1` (relative stereo): the results for the Ki on D(1A) dopamine receptor [1] and at Mu-type opioid receptor [3] were above 100 µM and 21.9 µM, respectively. On D(1A) dopamine receptor [2], the inhibition is below 50%.

The values are drawn from ChEMBL document CHEMBL4725442, “Exception That Proves the Rule: Investigation of Privileged Stereochemistry in Designing Dopamine DR Bitopic Agonists” (ACS Med Chem Lett, 2020).
